Measured values published in PubChem BioAssay (NCI).
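Method: 48-hour compound exposure of cells in 96-well plates, five concentrations, linear interpolation of endpoints. At the GI50, growth is halved. TGI marks complete inhibition of growth.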

What was measured:
Assay in all cases: NCI anticancer screen, dose series, 48 h
A549 NSCLC = tested on: A549 NSCLC
COLO 205 colon = tested on: COLO 205 colon
IGROV1 ovarian = tested on: IGROV1 ovarian
K-562 leukemia = tested on: K-562 leukemia
MOLT-4 leukemia = tested on: MOLT-4 leukemia
NCI-H522 lung = tested on: NCI-H522 lung
OVCAR-4 ovarian = tested on: OVCAR-4 ovarian
SF-268 CNS = tested on: SF-268 CNS
SR leukemia = tested on: SR leukemia
MCF7 breast = tested on: MCF7 breast

## Cc1cc(C[C@H]2O[C@@H]3OC(C)(C)O[C@@H]3[C@H]3OC(C)(C)O[C@H]32)c2ccccc2n1
A549 NSCLC
  TGI: > 100 µM
COLO 205 colon
  TGI: > 100 µM
IGROV1 ovarian
  TGI: > 100 µM
K-562 leukemia
  TGI: > 100 µM
MOLT-4 leukemia
  TGI: > 100 µM
NCI-H522 lung
  TGI: 94.4 µM
OVCAR-4 ovarian
  TGI: > 100 µM
SF-268 CNS
  TGI: > 100 µM
SR leukemia
  TGI: > 100 µM

## CCOC(=O)/C=C1/C(CCCOCc2ccccc2)C2CCCC23CC2(CCN13)OCCO2 (stereo not given)
A549 NSCLC
  TGI: 63.9 µM
COLO 205 colon
  TGI: 34.2 µM
IGROV1 ovarian
  TGI: > 100 µM
K-562 leukemia
  TGI: 63.7 µM
MOLT-4 leukemia
  TGI: 33.2 µM
NCI-H522 lung
  TGI: 31.3 µM
OVCAR-4 ovarian
  TGI: > 100 µM
SF-268 CNS
  TGI: > 100 µM

## CN1Cc2c(nc(-c3ccccc3)c[n+]2[O-])N(C)C1
A549 NSCLC
  TGI: > 100 µM
COLO 205 colon
  TGI: > 100 µM
IGROV1 ovarian
  TGI: > 100 µM
K-562 leukemia
  TGI: > 100 µM
MOLT-4 leukemia
  TGI: > 100 µM
NCI-H522 lung
  TGI: > 100 µM
OVCAR-4 ovarian
  TGI: > 100 µM
SF-268 CNS
  TGI: > 100 µM

## C[C@@H]1CC[C@H]2[C@H]1[C@H]1[C@@H](CC[C@]2(C)N=C=S)C1(C)C
COLO 205 colon
  TGI: 33.3 µM
IGROV1 ovarian
  TGI: > 100 µM
K-562 leukemia
  TGI: 35.7 µM
MCF7 breast
  TGI: 34 µM
MOLT-4 leukemia
  TGI: 32.5 µM
OVCAR-4 ovarian
  TGI: > 100 µM
SR leukemia
  TGI: 47 µM

## CSc1nc2c(c(N(C)C)n1)C(O)n1c(nc3ccccc31)S2 (stereo not given)
A549 NSCLC
  TGI: > 100 µM
COLO 205 colon
  TGI: > 100 µM
IGROV1 ovarian
  TGI: > 100 µM
K-562 leukemia
  TGI: > 100 µM
MCF7 breast
  TGI: > 100 µM
MOLT-4 leukemia
  TGI: > 100 µM
NCI-H522 lung
  TGI: 39.2 µM
OVCAR-4 ovarian
  TGI: 24.5 µM
SF-268 CNS
  TGI: > 100 µM

## O=C1c2cccc3cccc(c23)C(=O)N1CCCNCCCCNCCCNCCCN1C(=O)c2cccc3cccc(c23)C1=O
A549 NSCLC
  TGI: 1.39 µM
IGROV1 ovarian
  TGI: 3.41 µM
K-562 leukemia
  TGI: 3.79 µM
MCF7 breast
  TGI: 0.599 µM
OVCAR-4 ovarian
  TGI: 1.76 µM
SF-268 CNS
  TGI: 0.665 µM

## c1ccc(C(C(=Nc2ccc(Cc3ccc(N=C(C(c4ccccc4)c4ccccc4)N4CC4)cc3)cc2)N2CC2)c2ccccc2)cc1
A549 NSCLC
  TGI: 22.3 µM
COLO 205 colon
  TGI: 16.7 µM
IGROV1 ovarian
  TGI: 2.41 µM
K-562 leukemia
  TGI: 17.6 µM
MCF7 breast
  TGI: 15.4 µM
NCI-H522 lung
  TGI: 19.8 µM
SF-268 CNS
  TGI: 21.8 µM
SR leukemia
  TGI: 15.7 µM

## Cc1cc(C)nc(NC(=S)Nc2ccc([N+](=O)[O-])cc2)c1
COLO 205 colon
  TGI: > 100 µM
IGROV1 ovarian
  TGI: > 100 µM
K-562 leukemia
  TGI: > 100 µM
MCF7 breast
  TGI: > 100 µM
MOLT-4 leukemia
  TGI: > 100 µM
OVCAR-4 ovarian
  TGI: > 100 µM
SF-268 CNS
  TGI: > 100 µM
SR leukemia
  TGI: > 100 µM

## Nc1ncnc2c1ccn2C/C=C/CO
A549 NSCLC
  TGI: > 100 µM
COLO 205 colon
  TGI: > 100 µM
IGROV1 ovarian
  TGI: > 100 µM
K-562 leukemia
  TGI: > 100 µM
MCF7 breast
  TGI: > 100 µM
MOLT-4 leukemia
  TGI: > 100 µM
NCI-H522 lung
  TGI: > 100 µM
OVCAR-4 ovarian
  TGI: > 100 µM
SF-268 CNS
  TGI: > 100 µM

## CC(C)(C)N=C(N)NC#N
A549 NSCLC
  TGI: > 100 µM
COLO 205 colon
  TGI: > 100 µM
IGROV1 ovarian
  TGI: > 100 µM
K-562 leukemia
  TGI: > 100 µM
MCF7 breast
  TGI: > 100 µM
MOLT-4 leukemia
  TGI: > 100 µM
OVCAR-4 ovarian
  TGI: > 100 µM
SF-268 CNS
  TGI: > 100 µM
SR leukemia
  TGI: > 100 µM

## Cc1ccnc(NC(=S)Nc2ccc([N+](=O)[O-])cc2)c1
IGROV1 ovarian
  TGI: > 100 µM
K-562 leukemia
  TGI: > 100 µM
MCF7 breast
  TGI: > 100 µM
MOLT-4 leukemia
  TGI: > 100 µM
OVCAR-4 ovarian
  TGI: > 100 µM
SF-268 CNS
  TGI: > 100 µM
SR leukemia
  TGI: > 100 µM

## C=C1C(=O)[C@@]23CC[C@@H]4[C@@]5(C)CCC[C@@]4(OC5=O)[C@@]2(C)CC[C@@H]1C3
A549 NSCLC
  TGI: 36.3 µM
IGROV1 ovarian
  TGI: 4.99 µM
MCF7 breast
  TGI: 2.21 µM
MOLT-4 leukemia
  TGI: > 26.1 µM
NCI-H522 lung
  TGI: 2.43 µM
OVCAR-4 ovarian
  TGI: 5.28 µM
SF-268 CNS
  TGI: 6.12 µM
SR leukemia
  TGI: > 100 µM

## COc1ccc(-c2nc3ccccc3c(=S)n2OC(C)=O)cc1
A549 NSCLC
  TGI: > 25 µM
COLO 205 colon
  TGI: > 25 µM
IGROV1 ovarian
  TGI: > 25 µM
K-562 leukemia
  TGI: > 25 µM
MCF7 breast
  TGI: > 25 µM
MOLT-4 leukemia
  TGI: > 25 µM
OVCAR-4 ovarian
  TGI: > 25 µM
SF-268 CNS
  TGI: > 25 µM

## CCOC(=O)c1c2cccccc-2nc1Nc1cccc2c(C)ccnc12
A549 NSCLC
  TGI: > 10 µM
COLO 205 colon
  TGI: > 10 µM
IGROV1 ovarian
  TGI: > 10 µM
K-562 leukemia
  TGI: > 10 µM
MCF7 breast
  TGI: > 10 µM
MOLT-4 leukemia
  TGI: > 10 µM
OVCAR-4 ovarian
  TGI: > 10 µM
SF-268 CNS
  TGI: > 10 µM
SR leukemia
  TGI: > 10 µM

## CC(C(=O)COCc1ccccc1)P1(=O)OC(C)(C)CN1C(C)(C)C (stereo not given)
A549 NSCLC
  TGI: > 100 µM
COLO 205 colon
  TGI: > 100 µM
MCF7 breast
  TGI: > 100 µM
MOLT-4 leukemia
  TGI: > 100 µM
NCI-H522 lung
  TGI: > 100 µM
OVCAR-4 ovarian
  TGI: > 100 µM
SF-268 CNS
  TGI: > 100 µM

## CN1CCN(Cc2cc3c(nn2)-c2ccccc2C3=O)CC1
A549 NSCLC
  TGI: > 100 µM
COLO 205 colon
  TGI: 34.3 µM
IGROV1 ovarian
  TGI: > 100 µM
K-562 leukemia
  TGI: > 100 µM
MCF7 breast
  TGI: > 100 µM
MOLT-4 leukemia
  TGI: > 100 µM
NCI-H522 lung
  TGI: 64.3 µM
SF-268 CNS
  TGI: > 100 µM
SR leukemia
  TGI: > 100 µM

## O=C(NN1C(=O)CS(=O)(=O)C1c1ccc(C(F)(F)F)cc1)c1ccncc1 (stereo not given)
A549 NSCLC
  TGI: > 100 µM
COLO 205 colon
  TGI: > 100 µM
MOLT-4 leukemia
  TGI: > 100 µM
NCI-H522 lung
  TGI: > 100 µM
OVCAR-4 ovarian
  TGI: > 100 µM
SF-268 CNS
  TGI: > 100 µM
SR leukemia
  TGI: > 100 µM

## Cc1cc(N(C)C)c2ccccc2[n+]1CCCCCCCCCC[n+]1c(C)cc(N(C)C)c2ccccc21
A549 NSCLC
  TGI: 18 µM
COLO 205 colon
  TGI: 6.07 µM
IGROV1 ovarian
  TGI: > 20.6 µM
K-562 leukemia
  TGI: > 35.3 µM
MCF7 breast
  TGI: 26.3 µM
MOLT-4 leukemia
  TGI: 13.8 µM
NCI-H522 lung
  TGI: > 29.7 µM
OVCAR-4 ovarian
  TGI: 22.2 µM
SF-268 CNS
  TGI: 33.3 µM

## C=C(C)[C@H]1C2=CC(C(=O)OC)=C(C[C@H](C(=C)C)[C@@H](O)[C@@H](O)C3=C[C@H]1OC3=O)O2
A549 NSCLC
  TGI: > 100 µM
COLO 205 colon
  TGI: > 100 µM
IGROV1 ovarian
  TGI: > 100 µM
K-562 leukemia
  TGI: > 100 µM
MCF7 breast
  TGI: > 100 µM
MOLT-4 leukemia
  TGI: > 100 µM
NCI-H522 lung
  TGI: > 100 µM
OVCAR-4 ovarian
  TGI: > 100 µM
SF-268 CNS
  TGI: > 100 µM

## C=C(CN(C)C)C(=O)c1ccc(C(=O)C(=C)CN(C)C)cc1
A549 NSCLC
  TGI: > 100 µM
COLO 205 colon
  TGI: > 100 µM
IGROV1 ovarian
  TGI: > 100 µM
K-562 leukemia
  TGI: > 100 µM
MOLT-4 leukemia
  TGI: > 100 µM
NCI-H522 lung
  TGI: > 100 µM
OVCAR-4 ovarian
  TGI: > 100 µM
SF-268 CNS
  TGI: > 100 µM
SR leukemia
  TGI: > 100 µM

## [N-]=[N+]=CC(=O)OC(CCl)CCl
COLO 205 colon
  TGI: > 100 µM
IGROV1 ovarian
  TGI: > 100 µM
K-562 leukemia
  TGI: > 100 µM
MCF7 breast
  TGI: > 100 µM
MOLT-4 leukemia
  TGI: > 100 µM
NCI-H522 lung
  TGI: > 100 µM
OVCAR-4 ovarian
  TGI: > 100 µM
SF-268 CNS
  TGI: > 100 µM
SR leukemia
  TGI: > 100 µM

## CCN(CC)c1ccc(/C=C/c2ccnc3ccccc23)cc1
A549 NSCLC
  TGI: > 100 µM
COLO 205 colon
  TGI: > 100 µM
IGROV1 ovarian
  TGI: > 100 µM
K-562 leukemia
  TGI: > 100 µM
MCF7 breast
  TGI: > 100 µM
OVCAR-4 ovarian
  TGI: > 100 µM
SF-268 CNS
  TGI: > 100 µM
SR leukemia
  TGI: > 100 µM

## C=CC1(C)CC(=O)C2(O)C(C)(O1)C(OC(C)=O)C(O)C1C(C)(C)CCC(O)C12C (stereo not given)
A549 NSCLC
  TGI: > 150 µM
COLO 205 colon
  TGI: > 122 µM
IGROV1 ovarian
  GI50: > 77.2 µM
  TGI: > 121 µM
K-562 leukemia
  TGI: > 150 µM
MCF7 breast
  TGI: > 115 µM
MOLT-4 leukemia
  GI50: > 91.2 µM
  TGI: > 150 µM
NCI-H522 lung
  TGI: > 150 µM
OVCAR-4 ovarian
  TGI: > 122 µM
SF-268 CNS
  TGI: > 150 µM

## CNc1[nH]c(=S)nc2sc3c(c12)CCCC3
COLO 205 colon
  TGI: > 75 µM
IGROV1 ovarian
  TGI: > 75 µM
K-562 leukemia
  TGI: > 75 µM
MCF7 breast
  TGI: > 75 µM
MOLT-4 leukemia
  TGI: > 75 µM
NCI-H522 lung
  TGI: > 75 µM
OVCAR-4 ovarian
  TGI: > 75 µM
SF-268 CNS
  TGI: > 75 µM
SR leukemia
  TGI: > 75 µM
